Consider 13 compounds from PubChem BioAssay (NCI).

Holding throughout (test): growth of human tumour cells (NCI), 48 h
Assay [1] deals with COLO 205 colon.
Assay [2] deals with HCC-2998 colon.
In assay [3] the test system is MCF7 breast.
The subject of assay [4] is MDA-MB-231 breast.
Assay [5] deals with NCI-H23 lung.
Assay [6] deals with NCI/ADR-RES ovarian.
The subject of assay [7] is PC-3 prostate.
The test system of assay [8] is SF-295 CNS.
Assay [9] deals with SK-MEL-2 melanoma.
Assay [10] concerns SW-620 colon.

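Following 48 hours of exposure in 96-well plates, responses at five concentrations were used to interpolate endpoints linearly. Abbreviation: GI50, concentration required for 50% inhibition of growth. The concentration for full growth arrest is given as TGI.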 Bounds are passed on as bounds.

`Cc1c(-c2nc(N)nc(C3CC3)c2C)nc(N)nc1C1CC1`: the TGI in assay [1], in assay [2], in assay [3], in assay [4], in [5] and in [6] was more than 100 µM throughout. Moreover, the TGI in [7], in assay [8], in [9] and in [10] was more than 100 µM each time.

In the case of `FC(F)(F)c1ccc2c(Nc3cccc(C4CC(c5ccccc5)=NN4c4ccc(Cl)cc4)c3)ccnc2c1` (stereo not given), the GI50 in assay [1] is 10.7 µM; in [2], 1.96 µM; in assay [3], 1.67 µM; in [4] it was 3.88 µM; in [5], 4.22 µM; in assay [6], 2.63 µM. Also, the GI50 in [7] was 3.77 µM; in [8], 2.25 µM; in assay [9], 15.1 µM; in assay [10], 2.79 µM. In addition, the TGI in assay [1] is more than 100 µM; in assay [2], 4.01 µM; in [3], 10.6 µM; in [4] it was 15.9 µM; in assay [5], 25.3 µM; in assay [6], 10.3 µM. The TGI in assay [7] is 16.6 µM; in assay [8], 8.67 µM; in assay [9], 42.9 µM; in assay [10], 8.34 µM.

`CS(=O)(=O)Nc1ccc(-c2ccc3c(NC(=O)C4CC4)n[nH]c3c2)cc1`: the GI50 in assay [1] is more than 25 µM; in assay [2] it was more than 25 µM; in [3] it was more than 23.2 µM; in assay [4], more than 25 µM; in assay [5], more than 25 µM; in assay [6], more than 25 µM. In addition, the GI50 is more than 25 µM in assay [7], more than 25 µM in assay [8], more than 18.5 µM in assay [9] and more than 25 µM in assay [10]. Also, the TGI in assay [1], in assay [2], in assay [3], in assay [4], in assay [5] and in assay [6] was more than 25 µM throughout. Also, the TGI in assay [7], in assay [8], in [9] and in assay [10] was more than 25 µM throughout.

For the compound `COC(=O)NC/C=C\c1nc(CC/C=C\C(=O)OC2CC3CC(=O)O[C@@H](/C=C/CC(C)C)C[C@@H]4CCC(C)C(C[C@@H](OC)CC(C2)O3)O4)co1` (stereo not given in full), the GI50 in assay [1] was less than 0.01 µM; in assay [2], less than 0.01 µM; in [3], less than 0.01 µM; in [4] it was 4.43 µM; in assay [5] it was less than 0.01 µM; in assay [6] it was 38.3 µM. The GI50 is less than 0.01 µM in assay [7], less than 0.01 µM in assay [8], 12.8 µM in [9] and less than 0.01 µM in assay [10]. Further, the TGI in assay [1] was 98.4 µM; in assay [2], 19 µM; in assay [3] it was more than 100 µM; in assay [4], 47.6 µM; in assay [5], more than 100 µM; in assay [6] it was more than 100 µM. Besides, the TGI in assay [7] was more than 100 µM; in assay [8], 73.8 µM; in assay [9], 94.1 µM; in [10], more than 100 µM.

`Cc1ccc([N+](=O)[O-])c2c(NCCCN(C)C)ccnc12`: the TGI was 31.8 µM in assay [1]; 45.5 µM in [2]; more than 100 µM in assay [3]; more than 100 µM in assay [4]; more than 100 µM in [5]; more than 100 µM in assay [6]. In addition, the TGI in [7], in assay [8], in assay [9] and in assay [10] was more than 100 µM in each case.

Take `C=CC(=O)N1CCN(c2ncnc3c(F)c(-c4c(O)cccc4F)c(Cl)cc23)CC1`: the GI50 is 17.5 µM in assay [1]; 17.5 µM in [2]; 9.68 µM in assay [3]; 14.3 µM in assay [4]; 0.43 µM in assay [5]; 22.1 µM in [6]. The GI50 in assay [7] was 7.29 µM; in assay [8], 15.2 µM; in [9] it was 15 µM; in assay [10], 14 µM. The TGI in assay [1] is 37.5 µM; in assay [2], 32.7 µM; in assay [3], 29.3 µM; in [4] it was 35.9 µM; in [5], 15.9 µM; in assay [6], 76.1 µM. In addition, the TGI amounted to 30.3 µM in assay [7], 35.3 µM in assay [8], 35 µM in assay [9] and 31.9 µM in assay [10].

On to `CCCCCC(C(O)C#N)C(O)(C(F)(F)F)C(F)(F)F` (stereo not given), for which the TGI in [1], in [2], in assay [3], in assay [4], in assay [5] and in [6] was more than 10 µM each time. Besides, the TGI in assay [7], in assay [8] and in assay [10] was more than 10 µM throughout.

`CN(C)c1nc(-c2cccs2)n2nc(-c3ccc(Cl)cc3)cc2n1`: the GI50 is more than 100 µM in assay [2]; more than 100 µM in assay [3]; 3.7 µM in [4]; 6.51 µM in assay [5]; 2.49 µM in assay [8]; 9.03 µM in [9]. In addition, in [10], the GI50 is more than 100 µM. Moreover, the TGI in assay [2], in assay [3], in assay [4], in assay [5], in assay [8] and in [9] was more than 100 µM each time. Besides, in assay [10], the TGI is more than 100 µM.

Turning to `C=C1CC(COc2cc(Cl)nc(N)n2)C1`, the GI50 in [1] was 21.1 µM; in assay [3] it was 39.4 µM; in assay [4], 30.1 µM; in [5], 38.6 µM; in [6], 33.4 µM; in assay [8], 34.4 µM. Moreover, the figures for the GI50 in [9] and in [10] were 31.4 µM and 45.7 µM, respectively. The same compound displayed a TGI in assay [1] of 60.8 µM.

Regarding `Cc1sc(C)c(-c2ccc(CO)o2)c1-c1ccc(CO)o1`, the GI50 was more than 83.9 µM in assay [2]; 0.0787 µM in assay [3]; 51 µM in [4]; more than 100 µM in [5]; more than 84.4 µM in assay [6]; 32.7 µM in [7]. The values for the GI50 in [8], in assay [9] and in [10] were 0.276 µM, 5.03 µM and 0.499 µM, respectively. Besides, the TGI in assay [2], in assay [3], in assay [4], in assay [5], in [6] and in assay [7] was more than 100 µM each time. Besides, the TGI in assay [8], in assay [9] and in assay [10] was more than 100 µM each time.

For `Cc1ccc2/c(=C/c3ccc(N(C)C)cc3)c3cc(-c4ccccc4)[n+](C)n3c2c1`, the GI50 is less than 0.0199 µM in assay [2]; 0.036 µM in assay [3]; 0.0337 µM in [4]; 0.0836 µM in assay [5]; 6.41 µM in assay [6]; 0.0251 µM in assay [7]. Further, the GI50 is 0.352 µM in assay [8] and 0.186 µM in assay [10]. The TGI in [2] is 0.197 µM; in [3] it was 11.3 µM; in [4] it was 1.06 µM; in assay [5], 1.9 µM; in assay [6], more than 100 µM; in assay [7], 3.9 µM. Besides, the results for the TGI in assay [8] and in [10] were 3.31 µM and 1.51 µM, respectively.

`COc1cc(/C=C2\CC3C4CC=C5CC(N6CCCC6)CC[C@]5(C)C4CC[C@]3(C)C2OC(C)=O)ccc1OCCN1CCCC1` (stereo not given in full): the GI50 in [1] is 3.61 µM; in assay [3], 1.62 µM; in assay [4], 8.82 µM; in assay [5], 14.2 µM; in assay [6], 2.52 µM; in assay [7], 3.45 µM. For the same compound, the GI50 in assay [8] was 12.7 µM; in assay [9], 2.09 µM. Also, the TGI came out at 12.9 µM in assay [1]; 3.17 µM in assay [3]; 22.5 µM in [4]; 27.6 µM in assay [5]; 5.2 µM in assay [6]; 10.2 µM in assay [7]. In addition, the TGI came out at 26.5 µM in assay [8] and 3.7 µM in assay [9].

As for `Cc1ccc(C(=O)CC(Sc2cccc(Cl)c2Cl)c2ccc(Cl)cc2)cc1C` (stereo not given), the GI50 in assay [1] is 20.8 µM; in assay [3] it was 15.9 µM; in assay [4] it was 17.9 µM; in assay [5], 17.4 µM; in [6] it was 23.3 µM; in assay [7] it was 15.8 µM. Moreover, the GI50 in assay [8] is 16.9 µM; in [9], 20.2 µM; in assay [10], 17.8 µM. Also, the TGI in [1] stood at 46.5 µM; in assay [3], 36.1 µM; in assay [4] it was 39 µM; in assay [5], 32.6 µM; in [6], 48.9 µM; in [7], 29.2 µM. Also, the TGI in assay [8] is 37.2 µM; in [9] it was 39 µM; in assay [10] it was 36 µM.
